Test system: HSV-1 (KOS) gL86
Assay: HSV-1 entry into primary human corneal fibroblasts (CF)
Format: cell-based, herpes simplex virus type-1
Details: CF, 6 h, ONPG (FIG. 4A)
Experimental: HSV-1 entry was assayed as described in Shukla et al., Cell 99:13-22 (1999). CHO-K1 cells were grown in 6-well plates to subconfluence and then transfected with 2.5 μg of expression plasmids for gD receptors nectin-1 (pBG38), HVEM (pBec10), 3-OST-3 isoform (pDS43), or pCDNA3.1 (empty vector) using LipofectAMINE (Gibco/BRL). At 16 h post-transfection, the cells were replated into 96-well dishes for pre-incubation with peptides at different concentrations for 60 min at room temperature. In parallel, natural target cells (HeLa, CF, and RPE) were also pre-treated with the peptides for the same duration. In all cases, unbound peptides were removed after washing 3× with PBS. Thereafter, cells were infected for 6 h with a recombinant virus, HSV-1 (KOS) gL86, at multiple plaque forming units (PFUs) and β-galactosidase assays were performed using either a soluble substrate o-nitrophenyl-β-D-galactopyranoside (ONPG at 3.0 mg/ml; ImmunoPure, Pierce) or X-gal (Sigma). For the soluble substrate, the enzymatic activity was measured at 410 nm using a micro-plate reader (Spectra Max 190, Molecular Devices, Sunnyvale, Calif.). For the X-gal assay, cells were fixed (2% formaldehyde and 0.2% glutaraldehyde) and permeabilized (2 mM MgCl2, 0.01% deoxycholate, and 0.02% nonidet NP-40 (Sigma)). 1 ml of β-galactosidase reagent (1.0 mg/ml X-gal in ferricyanide buffer) was added to each well and incubated at 37° C. for 90 min before the cells were examined using bright field microscopy under the 20× objectives of the inverted microscope (Zeiss Axiovert 100 M).
The ability of the G1 and G2 peptides to block HSV-1 entry into natural target cells (HeLa and primary cultures of human CF) was compared. A similar dosage response curve was generated when HeLa (FIG. 2A) or CF (FIG. 2B) were pre-treated with G1 or G2 peptides during HSV-1 entry. […] HeLa cells (FIG. 2A) and primary cultures of human corneal fibroblasts (CF) (FIG. 2B) were tested. Cells in 96-well plates were pre-treated for 60 min with indicated mM concentrations of G1, G2, or Cp peptides. Mock-treated cells (abbreviated as C) served as a control. Pretreated cells were infected with a β galactosidase-expressing recombinant virus HSV-1 (KOS) HSV-1 gL86 (25 pfu/cell) for 6 hr. Viral entry was quantitated as described above in reference to FIG. 1. Confirmation of HSV-1 entry blocking activity of G1, G2, and control (Cp) peptides on a per cell basis was obtained after cells were infected as described above followed by X-gal (1.0 mg/ml) staining (Right panels), which yields an insoluble blue product upon hydrolysis by β-galactosidase expressed from the input viral genomes. […] Microscopy was performed using a 20× objective of Zeiss Axiovert 100.
To better understand the inhibitory potential of G1 and G2 peptides, synthetic short variants (10-mer) were synthesized that lacked the terminal non-positively charged amino acids. In case of G1, N-terminus L and C-terminus H residues were removed. For G2, the N-terminus flanking residues (M and P) were removed. Without being bound by theory, it is believed that 12-mer peptides are too short to adopt substantial secondary or tertiary structures and that the primary structure of those peptides, which includes a defined sequence or groupings of positively charged residues, plays a critical role in mediating inhibition of HSV-1 entry. Synthetic 10-mer versions of G1 and G2 (shown above) were tested for blocking HSV-1(KOS)gL86 entry into cultured CF. After 6 h, the viral entry was measured by ONPG assay as described in FIG. 1.
Alanine (A) scanning mutagenesis was performed to identify specific amino acid residues responsible for each peptide's function, stability, and conformation. O'Nuallain et al., Biochemistry 46:13049-13058 (2007). Twelve synthetic peptides were made whereby each residue of G2 was sequentially replaced with an alanine residue and corresponding changes in the G2 peptide were evaluated for their ability to affect viral entry (FIG. 4B). […]

| Sequence | ability of 10-mer version to block HSV-1 entry compared with 12-mer |
| --- | --- |
| RSRTKIIRIR [10-mer version of G1] | almost completely lost its ability to block HSV-1 entry |
| RRRRIRRRQK [10-mer version of G2] | very similar to the 12-mer in its ability to block HSV-1 entry |

From patent publication US9464113B2, “Anti-heparan sulfate peptides that block herpes simplex virus infection in vivo” (The Board of Trustees of the University of Illinois, priority 2010, dated 2016)
